Key:
colon cancer (C26) = type: in vivo, Balb mice
Experimental: SMA-THP and pirarubicin (THP) were administered intravenously to mice at the respective dose shown in Table 2 at Day 10 from the inoculation of cancer in mice, and the antitumor effect was evaluated at Day 50. Subsequently, 5×10^5 colon cancer (C26) cells were inoculated in the back in Balb mice and the model animals with tumor size of 5 to 6 mm at about Day 7 to 9 were treated.

in vivo = conditions: mouse
[1] = dose 3 mg/kg (MTD amount) i.v. at Day 10, evaluated at Day 50

SMILES: COc1cccc2c1C(=O)c1c(O)c3c(c(O)c1C2=O)C[C@@](O)(C(=O)CO)C[C@@H]3O[C@H]1C[C@H](N)[C@H](O[C@@H]2CCCCO2)[C@H](C)O1 [THP, pirarubicin]
- Number of Metastatic Cancerous Nodes/Mouse: (1~5) (+), mice/group (colon cancer (C26); [1]): 2/5
- Number of Metastatic Cancerous Nodes/Mouse: (>6) (++), mice/group (colon cancer (C26); [1]): 3/5
- Number of Metastatic Cancerous Nodes/Mouse: No Metastasis (−), mice/group (colon cancer (C26); [1]): 0/5
- effect on the metastatic cancers (colon cancer (C26); maximum tolerated dose of 3 mg/kg): almost ineffective
- MTD (in vivo; Balb, iv): 3 mg/kg
- LD50 (in vivo): 14.4 mg/kg

Source: patent US9937152B2, “Derivative of styrene-maleic acid copolymer” (priority 2013, dated 2018)
